From PubChem BioAssay AID296 (DTP/NCI, 2004)
“And” between values parts separate entries of the source, which are not always exact repeats. Equal entries are not always repeated. Records with an inconclusive call do not appear.

Tested on: MX-1 breast xenograft, nude mice, tumor weight T/C
Assay: NCI In Vivo Anticancer Drug Screen. Data for tumor model Human Mammary Carcinoma MX-1 Xenograft (intrarenal inoculation) in NU/NU Swiss (nude) mice
Details: endpoint: mean tumor weight change, higher = larger tumour
In short: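 Activity is given as a ratio, with each measurement in the compound-treated arm divided by the matching measurement in vehicle-dosed controls. Tumour size or survival serves as the measured parameter.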

[1] = dose: 150.0 mg/kg/injection, schedule: Q04DX003 (sc), vehicle: Klucel (hydroxypropylcellulose) (HPC)
[2] = dose: 300.0 mg/kg/injection, schedule: Q04DX003 (sc), vehicle: Klucel (hydroxypropylcellulose) (HPC)
[3] = dose: 6.25 mg/kg/injection, schedule: Q01DX010 (sc), vehicle: saline
[4] = dose: 25.0 mg/kg/injection, schedule: Q01DX010 (sc), vehicle: saline
[5] = dose: 300.0 mg/kg/injection, schedule: Q04DX003 (sc), vehicle: saline with Tween-80
[6] = dose: 600.0 mg/kg/injection, schedule: Q04DX003 (sc), vehicle: saline with Tween-80
[7] = dose: 1200.0 mg/kg/injection, schedule: Q04DX003 (sc), vehicle: saline with Tween-80
[8] = dose: 2400.0 mg/kg/injection, schedule: Q04DX003 (sc), vehicle: saline with Tween-80
[9] = dose: 600.0 mg/kg/injection, schedule: Q04DX003 (sc), vehicle: Klucel (hydroxypropylcellulose) (HPC)
[10] = dose: 1200.0 mg/kg/injection, schedule: Q04DX003 (sc), vehicle: Klucel (hydroxypropylcellulose) (HPC)
[11] = dose: 12.5 mg/kg/injection, schedule: Q01DX010 (sc), vehicle: saline

In the case of `COc1cc(NCc2ccc3nc(N)nc(N)c3c2C)cc(OC)c1OC`, the T/C (dose: 1.25 mg/kg/injection, schedule: Q01DX010 (sc), vehicle: sodium bicarbonate) is reported as 70 % of control, the T/C (dose: 2.5 mg/kg/injection, schedule: Q01DX010 (sc), vehicle: sodium bicarbonate) is reported as 46 % of control and the T/C (dose: 20.0 mg/kg/injection, schedule: Q01DX010 (sc), vehicle: sodium bicarbonate) is reported as 97 % of control. For the same compound, the T/C (dose: 75.0 mg/kg/injection, schedule: Q04DX003 (sc), vehicle: water) was 115 % of control, the T/C (dose: 150.0 mg/kg/injection, schedule: Q04DX003 (sc), vehicle: water) was 108 % of control and the T/C (dose: 300.0 mg/kg/injection, schedule: Q04DX003 (sc), vehicle: water) was 112 % of control.

With `CCN(C)N=Nc1ccc(C(N)=O)cc1` the T/C [1] was 38 % of control and the T/C [2] was 21 % of control.

`O=c1s[se]c2ccccc12` was tested, and the T/C [1] was 55 % of control and the T/C [2] was 55 % of control.

With `c1cc[c]([Sn][c]2ccccc2)cc1` the T/C (dose: 20.0 mg/kg/injection, schedule: Q01DX010 (sc), vehicle: saline) was 112 % of control, the T/C (dose: 40.0 mg/kg/injection, schedule: Q01DX010 (sc), vehicle: saline) was 84 % of control and the T/C (dose: 80.0 mg/kg/injection, schedule: Q01DX010 (sc), vehicle: saline) was 74 % of control. The T/C (dose: 160.0 mg/kg/injection, schedule: Q01DX010 (sc), vehicle: saline) was 115 % of control.

With `CC(C)[NH-].CC(C)[NH-].O.O.[Cl][Pt+2][Cl]` the T/C (dose: 3.12 mg/kg/injection, schedule: Q01DX010 (sc), vehicle: dextrose) was 80 % of control and 97 % of control, the T/C (dose: 6.25 mg/kg/injection, schedule: Q01DX010 (sc), vehicle: dextrose) was 7 % of control and 22 % of control and the T/C (dose: 25.0 mg/kg/injection, schedule: Q01DX010 (sc), vehicle: dextrose) was -89 % of control.

In the case of `O=NNc1ccccn1`, the T/C (dose: 1.0 mg/kg/injection, schedule: Q01DX010 (sc), vehicle: saline) is reported as 78 % of control, the T/C (dose: 2.0 mg/kg/injection, schedule: Q01DX010 (sc), vehicle: saline) is reported as 86 % of control and the T/C (dose: 3.13 mg/kg/injection, schedule: Q01DX010 (sc), vehicle: saline) is reported as 20 % of control. For the same compound, the T/C (dose: 4.0 mg/kg/injection, schedule: Q01DX010 (sc), vehicle: saline) was 163 % of control, the T/C [3] was 50 % of control and 72 % of control and the T/C (dose: 8.0 mg/kg/injection, schedule: Q04DX003 (sc), vehicle: saline) was 103 % of control. For the same compound, the T/C [4] was 1 % of control and the T/C (dose: 64.0 mg/kg/injection, schedule: Q01DX010 (sc), vehicle: saline) was -87 % of control.

In the case of `[I][Hg][CH2]C1COC([CH2][Hg][I])CO1` (stereo not drawn), the T/C [5] is reported as 86 % of control, the T/C [6] is reported as 77 % of control and the T/C [7] is reported as 115 % of control. For the same compound, the T/C [8] was 82 % of control.

`COC1CC2C=C(C)/C=C/C=C/C(=O)NC(c3ccccc3)C/C=C/CCC(O)CC(=O)C2=C1O` (stereo not drawn) was tested, and the T/C (dose: 75.0 mg/kg/injection, schedule: Q04DX003 (sc), vehicle: Klucel (hydroxypropylcellulose) (HPC)) was 41 % of control, the T/C [1] was 71 % of control and the T/C [2] was 50 % of control.

In the case of `c1cc(NC2CCCCC2)ccc1CN1CCOCC1`, the T/C (dose: 50.0 mg/kg/injection, schedule: Q01DX010 (sc), vehicle: saline + Tween-80 + alcohol) is reported as 66 % of control, the T/C (dose: 100.0 mg/kg/injection, schedule: Q01DX010 (sc), vehicle: saline + Tween-80 + alcohol) is reported as 38 % of control and the T/C (dose: 200.0 mg/kg/injection, schedule: Q01DX010 (sc), vehicle: saline + Tween-80 + alcohol) is reported as 81 % of control. For the same compound, the T/C (dose: 400.0 mg/kg/injection, schedule: Q01DX010 (sc), vehicle: saline + Tween-80 + alcohol) was 61 % of control.

`OCCOCC(F)(F)F` was tested, and the T/C (dose: 300.0 mg/kg/injection, schedule: Q04DX003 (sc), vehicle: saline) was 82 % of control, the T/C (dose: 1200.0 mg/kg/injection, schedule: Q04DX003 (sc), vehicle: saline) was 86 % of control and the T/C (dose: 2400.0 mg/kg/injection, schedule: Q04DX003 (sc), vehicle: saline) was 49 % of control.

For `Ic1ncnc2c1ncn2C1CCCO1` (stereo not drawn), the T/C (dose: 50.0 mg/kg/injection, schedule: Q04DX003 (sc), vehicle: Klucel (hydroxypropylcellulose) (HPC)) was 84 % of control, the T/C (dose: 200.0 mg/kg/injection, schedule: Q04DX003 (sc), vehicle: Klucel (hydroxypropylcellulose) (HPC)) was 97 % of control and the T/C (dose: 400.0 mg/kg/injection, schedule: Q04DX003 (sc), vehicle: Klucel (hydroxypropylcellulose) (HPC)) was 123 % of control.

In the case of `Cc1ccc(NCCN(C)C)c2c(=O)c3cc(O)ccc3sc12`, the T/C [1] is reported as 54 % of control, the T/C [2] is reported as 62 % of control and the T/C [9] is reported as 120 % of control. For the same compound, the T/C [10] was 75 % of control.

With `COc1cccc2c1C(=O)c1c(O)c3c(c(O)c1C2=O)C[C@H](O)C[C@@H]3OC1CC(N)C(O)C(C)O1` (stereo partly drawn) the T/C (dose: 3.12 mg/kg/injection, schedule: Q01DX010 (sc), vehicle: saline) was 165 % of control, the T/C [3] was 83 % of control and the T/C [11] was 66 % of control. For the same compound, the T/C [4] was 81 % of control.

`CCCCNCCCNCCCNC(=O)c1csc(-c2csc(CCNC(=O)C(NC(=O)C(C)C(O)C(C)NC(=O)C(NC(=O)c3nc(C(CC(N)=O)NCC(N)C(N)=O)nc(N)c3C)C(OC3OC(CO)C(O)C(O)C3OC3OC(CO)C(O)C(OC(N)=O)C3O)c3cnc[nH]3)C(C)O)n2)n1` (stereo not drawn) was tested, and the T/C (dose: 8.0 mg/kg/injection, schedule: Q01DX010 (sc), vehicle: saline) was 104 % of control, the T/C (dose: 16.0 mg/kg/injection, schedule: Q01DX010 (sc), vehicle: saline) was 73 % of control and the T/C (dose: 32.0 mg/kg/injection, schedule: Q01DX010 (sc), vehicle: saline) was 39 % of control.

With `COC(=O)[C@@]12OC[C@]34[C@H]([C@@H](O)[C@@H]1O)[C@@]1(C)CC(=O)C(O)=C(C)[C@@H]1C[C@H]3OC(=O)[C@H](OC(=O)/C=C(\C)C(C)C)[C@@H]24` the T/C (dose: 0.25 mg/kg/injection, schedule: Q04DX003 (sc), vehicle: saline + alcohol) was 52 % of control, the T/C (dose: 0.5 mg/kg/injection, schedule: Q04DX003 (sc), vehicle: saline + alcohol) was 158 % of control and the T/C (dose: 1.0 mg/kg/injection, schedule: Q04DX003 (sc), vehicle: saline + alcohol) was 100 % of control. The T/C (dose: 2.0 mg/kg/injection, schedule: Q04DX003 (sc), vehicle: saline + alcohol) was 90 % of control.

With `S=C(Nc1ccc(Cl)c(Cl)c1)N1c2ccccc2-n2cccc2C1c1cccnc1` (stereo not drawn) the T/C [2] was 123 % of control, the T/C [9] was 89 % of control and the T/C [10] was 108 % of control. For the same compound, the T/C (dose: 2400.0 mg/kg/injection, schedule: Q04DX003 (sc), vehicle: Klucel (hydroxypropylcellulose) (HPC)) was 108 % of control.

`COc1cccc2c1C(=O)c1c(O)c3c(c(O)c1C2=O)C[C@@](O)(/C(C)=N/NC(=O)c1ccc(Cl)cc1)C[C@@H]3OC1CC(N)C(O)C(C)O1` (stereo partly drawn) was tested, and the T/C (dose: 1.0 mg/kg/injection, schedule: Q01DX010 (sc), vehicle: water) was 58 % of control, the T/C (dose: 4.0 mg/kg/injection, schedule: Q01DX010 (sc), vehicle: water) was 84 % of control and 109 % of control and the T/C (dose: 16.0 mg/kg/injection, schedule: Q01DX010 (sc), vehicle: water) was 49 % of control.

For `NC1=NCN(C2OC(CO)C(O)C2O)C(=O)N1` (stereo not drawn), the T/C [11] was 86 % of control, the T/C [4] was 32 % of control and 42 % of control and the T/C (dose: 25.0 mg/kg/injection, schedule: Q04DX003 (sc), vehicle: saline) was 34 % of control. For the same compound, the T/C (dose: 50.0 mg/kg/injection, schedule: Q01DX010 (sc), vehicle: saline) was 3 % of control and 4 % of control, the T/C (dose: 75.0 mg/kg/injection, schedule: Q04DX003 (sc), vehicle: saline) was 55 % of control and the T/C (dose: 100.0 mg/kg/injection, schedule: Q01DX010 (sc), vehicle: saline) was 6 % of control. The T/C (dose: 100.0 mg/kg/injection, schedule: Q04DX003 (sc), vehicle: saline) was 14 % of control and 30 % of control, the T/C (dose: 200.0 mg/kg/injection, schedule: Q04DX003 (sc), vehicle: saline) was 8 % of control and the T/C (dose: 400.0 mg/kg/injection, schedule: Q04DX003 (sc), vehicle: saline) was 2 % of control.

For `O=C(Nc1nncs1)c1ccncc1`, the T/C (dose: 150.0 mg/kg/injection, schedule: Q04DX003 (sc), vehicle: saline with Tween-80) was 101 % of control, the T/C [6] was 109 % of control and the T/C [7] was 65 % of control.

For `CCO/C=C1\SC(=S)N(c2ccccc2C)C1=O`, the T/C (dose: 100.0 mg/kg/injection, schedule: Q01DX010 (sc), vehicle: saline with Tween-80) was 121 % of control, the T/C (dose: 200.0 mg/kg/injection, schedule: Q01DX010 (sc), vehicle: saline with Tween-80) was 90 % of control and the T/C (dose: 800.0 mg/kg/injection, schedule: Q01DX010 (sc), vehicle: saline with Tween-80) was 111 % of control.

For `COc1cc2c3c(cccc3c1)C(=O)N(CCN(C)C)C2=O`, the T/C [5] was 100 % of control and the T/C [6] was 103 % of control.

With `Nc1ccc2c(c1)CN1C(=O)c3ccccc3C1=N2` the T/C [5] was 203 % of control, the T/C [6] was 168 % of control and the T/C [7] was 76 % of control.

`OCC1OC(n2cnc3cc(Cl)c(Cl)cc32)C(O)C1O` (stereo not drawn) was tested, and the T/C [5] was 156 % of control, the T/C [6] was 114 % of control and 118 % of control and the T/C [7] was 114 % of control. The T/C [8] was 66 % of control.
